Test results taken from patent US10125098B2, “Therapeutic compounds and methods of use thereof” (GENENTECH, INC., priority 2014, dated 2018).
Where a name gives a salt, the structure may show the parent alone. Read-outs that look alike come from different tables or passages of the source.

Key:
NaV1.5 = target: T1, NaV1.5 (Homo sapiens, UniProt Q14524); test: Patch voltage clamp electrophysiology assay (EP), NaV1.5; type: cell-based; settings: HEK-293 cells stably expressing NaV1.5 with β1 subunit, whole-cell patch clamp, membrane potential −60 mV (inactivated state)
T1 construct: permanently transfected with an expression vector containing the full-length cDNA coding for the desired human sodium channel α-subunit; expressed in transfected cells; host or cells: HEK-293
Summary of the method: (§1)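 HEK-293 cells stably expressing human α-subunit with β1; whole-cell patch clamp (PatchXpress or manual), ambient temperature, pH 7.4 external NaCl, CsF internal. Held at −60 mV (full inactivation), stepped to −150 mV for 20 ms, then test pulse; percent current decrease after compound wash-on taken as block.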

human NaV1.7 = target: T2, human NaV1.7 (Homo sapiens, UniProt Q15858); test: Patch voltage clamp electrophysiology assay (EP), NaV1.7; type: cell-based; settings: HEK-293 cells stably expressing NaV1.7 with β1 subunit; whole-cell patch clamp, membrane potential −60 mV (inactivated state)
T2 construct: permanently transfected with an expression vector containing the full-length cDNA coding for the desired human sodium channel α-subunit; expressed in transfected cells; host or cells: HEK-293
Summary of the method: as §1

hNav1.7 = target: T3, hNav1.7 (Homo sapiens, UniProt Q15858); test: Tritiated compound binding (LBA) to membranes from cells expressing hNav1.7 and the β1 subunit, competitive binding; settings: competitive binding vs 100 pM [3H]compound, 18 h, room temperature, membranes with hNav1.7 and β1 subunit
T3 construct: expressed in transfected cells
Summary of the method: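 Membranes from cells expressing hNav1.7 with β1 were incubated 18 h at room temperature with 100 pM tritiated formula (I) compound and increasing test compound, in 100 mM NaCl, 20 mM Tris HCl pH 7.4, 0.01% BSA.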

[1] = human, HEK-293 cells stably expressing human NaV1.5 with β1 subunit, pH 7.4

T1 sequence (Q14524 whole entry): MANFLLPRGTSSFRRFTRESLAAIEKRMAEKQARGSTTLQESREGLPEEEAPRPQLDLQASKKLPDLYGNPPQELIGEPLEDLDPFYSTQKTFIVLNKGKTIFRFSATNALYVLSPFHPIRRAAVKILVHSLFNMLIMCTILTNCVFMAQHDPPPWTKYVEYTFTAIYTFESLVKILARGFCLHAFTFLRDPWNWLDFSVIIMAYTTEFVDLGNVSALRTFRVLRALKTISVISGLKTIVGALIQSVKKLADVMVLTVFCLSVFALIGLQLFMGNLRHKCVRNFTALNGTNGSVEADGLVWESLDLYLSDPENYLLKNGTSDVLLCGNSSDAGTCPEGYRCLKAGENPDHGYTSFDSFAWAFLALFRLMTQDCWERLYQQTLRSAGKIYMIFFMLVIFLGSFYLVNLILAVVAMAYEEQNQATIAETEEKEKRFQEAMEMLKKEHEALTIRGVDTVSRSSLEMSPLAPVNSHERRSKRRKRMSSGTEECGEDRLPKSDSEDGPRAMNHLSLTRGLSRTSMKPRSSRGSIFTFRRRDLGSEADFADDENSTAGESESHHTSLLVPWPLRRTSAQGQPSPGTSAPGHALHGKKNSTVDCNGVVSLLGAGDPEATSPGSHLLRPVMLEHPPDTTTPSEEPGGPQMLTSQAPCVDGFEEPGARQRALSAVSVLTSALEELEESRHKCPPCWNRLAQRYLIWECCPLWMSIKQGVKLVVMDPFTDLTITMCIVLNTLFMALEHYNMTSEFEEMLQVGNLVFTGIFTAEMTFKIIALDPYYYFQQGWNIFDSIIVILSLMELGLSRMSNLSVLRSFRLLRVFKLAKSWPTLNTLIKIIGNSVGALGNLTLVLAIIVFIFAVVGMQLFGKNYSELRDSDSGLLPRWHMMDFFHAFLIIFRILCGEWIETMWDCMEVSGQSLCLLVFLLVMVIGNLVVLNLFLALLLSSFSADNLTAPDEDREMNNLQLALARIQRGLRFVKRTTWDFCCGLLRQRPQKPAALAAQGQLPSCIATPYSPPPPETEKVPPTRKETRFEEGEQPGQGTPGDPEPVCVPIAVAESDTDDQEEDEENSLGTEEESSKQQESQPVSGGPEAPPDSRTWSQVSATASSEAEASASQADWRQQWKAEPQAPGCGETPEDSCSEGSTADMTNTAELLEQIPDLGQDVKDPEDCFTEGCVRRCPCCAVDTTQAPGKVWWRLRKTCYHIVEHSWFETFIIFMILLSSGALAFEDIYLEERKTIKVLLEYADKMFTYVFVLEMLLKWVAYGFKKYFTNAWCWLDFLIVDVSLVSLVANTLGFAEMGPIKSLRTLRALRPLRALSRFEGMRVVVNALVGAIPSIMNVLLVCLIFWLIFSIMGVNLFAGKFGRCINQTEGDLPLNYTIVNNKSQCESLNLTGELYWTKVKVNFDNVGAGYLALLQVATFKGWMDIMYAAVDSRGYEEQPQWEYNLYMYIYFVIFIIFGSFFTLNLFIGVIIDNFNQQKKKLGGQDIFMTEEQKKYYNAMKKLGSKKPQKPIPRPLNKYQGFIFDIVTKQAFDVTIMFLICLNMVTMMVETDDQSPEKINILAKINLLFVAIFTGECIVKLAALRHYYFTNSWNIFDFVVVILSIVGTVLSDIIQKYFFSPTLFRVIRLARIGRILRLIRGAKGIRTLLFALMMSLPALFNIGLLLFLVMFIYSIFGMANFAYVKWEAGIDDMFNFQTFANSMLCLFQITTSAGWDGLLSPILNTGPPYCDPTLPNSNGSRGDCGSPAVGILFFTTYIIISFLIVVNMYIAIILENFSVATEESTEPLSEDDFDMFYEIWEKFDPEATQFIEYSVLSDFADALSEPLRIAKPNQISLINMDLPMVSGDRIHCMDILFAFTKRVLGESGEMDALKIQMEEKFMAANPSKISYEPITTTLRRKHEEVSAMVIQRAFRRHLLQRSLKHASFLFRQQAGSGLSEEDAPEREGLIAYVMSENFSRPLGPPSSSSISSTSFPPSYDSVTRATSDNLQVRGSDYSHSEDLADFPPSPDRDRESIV
T2 sequence (Q15858 1-1977 isoform Q15858-3): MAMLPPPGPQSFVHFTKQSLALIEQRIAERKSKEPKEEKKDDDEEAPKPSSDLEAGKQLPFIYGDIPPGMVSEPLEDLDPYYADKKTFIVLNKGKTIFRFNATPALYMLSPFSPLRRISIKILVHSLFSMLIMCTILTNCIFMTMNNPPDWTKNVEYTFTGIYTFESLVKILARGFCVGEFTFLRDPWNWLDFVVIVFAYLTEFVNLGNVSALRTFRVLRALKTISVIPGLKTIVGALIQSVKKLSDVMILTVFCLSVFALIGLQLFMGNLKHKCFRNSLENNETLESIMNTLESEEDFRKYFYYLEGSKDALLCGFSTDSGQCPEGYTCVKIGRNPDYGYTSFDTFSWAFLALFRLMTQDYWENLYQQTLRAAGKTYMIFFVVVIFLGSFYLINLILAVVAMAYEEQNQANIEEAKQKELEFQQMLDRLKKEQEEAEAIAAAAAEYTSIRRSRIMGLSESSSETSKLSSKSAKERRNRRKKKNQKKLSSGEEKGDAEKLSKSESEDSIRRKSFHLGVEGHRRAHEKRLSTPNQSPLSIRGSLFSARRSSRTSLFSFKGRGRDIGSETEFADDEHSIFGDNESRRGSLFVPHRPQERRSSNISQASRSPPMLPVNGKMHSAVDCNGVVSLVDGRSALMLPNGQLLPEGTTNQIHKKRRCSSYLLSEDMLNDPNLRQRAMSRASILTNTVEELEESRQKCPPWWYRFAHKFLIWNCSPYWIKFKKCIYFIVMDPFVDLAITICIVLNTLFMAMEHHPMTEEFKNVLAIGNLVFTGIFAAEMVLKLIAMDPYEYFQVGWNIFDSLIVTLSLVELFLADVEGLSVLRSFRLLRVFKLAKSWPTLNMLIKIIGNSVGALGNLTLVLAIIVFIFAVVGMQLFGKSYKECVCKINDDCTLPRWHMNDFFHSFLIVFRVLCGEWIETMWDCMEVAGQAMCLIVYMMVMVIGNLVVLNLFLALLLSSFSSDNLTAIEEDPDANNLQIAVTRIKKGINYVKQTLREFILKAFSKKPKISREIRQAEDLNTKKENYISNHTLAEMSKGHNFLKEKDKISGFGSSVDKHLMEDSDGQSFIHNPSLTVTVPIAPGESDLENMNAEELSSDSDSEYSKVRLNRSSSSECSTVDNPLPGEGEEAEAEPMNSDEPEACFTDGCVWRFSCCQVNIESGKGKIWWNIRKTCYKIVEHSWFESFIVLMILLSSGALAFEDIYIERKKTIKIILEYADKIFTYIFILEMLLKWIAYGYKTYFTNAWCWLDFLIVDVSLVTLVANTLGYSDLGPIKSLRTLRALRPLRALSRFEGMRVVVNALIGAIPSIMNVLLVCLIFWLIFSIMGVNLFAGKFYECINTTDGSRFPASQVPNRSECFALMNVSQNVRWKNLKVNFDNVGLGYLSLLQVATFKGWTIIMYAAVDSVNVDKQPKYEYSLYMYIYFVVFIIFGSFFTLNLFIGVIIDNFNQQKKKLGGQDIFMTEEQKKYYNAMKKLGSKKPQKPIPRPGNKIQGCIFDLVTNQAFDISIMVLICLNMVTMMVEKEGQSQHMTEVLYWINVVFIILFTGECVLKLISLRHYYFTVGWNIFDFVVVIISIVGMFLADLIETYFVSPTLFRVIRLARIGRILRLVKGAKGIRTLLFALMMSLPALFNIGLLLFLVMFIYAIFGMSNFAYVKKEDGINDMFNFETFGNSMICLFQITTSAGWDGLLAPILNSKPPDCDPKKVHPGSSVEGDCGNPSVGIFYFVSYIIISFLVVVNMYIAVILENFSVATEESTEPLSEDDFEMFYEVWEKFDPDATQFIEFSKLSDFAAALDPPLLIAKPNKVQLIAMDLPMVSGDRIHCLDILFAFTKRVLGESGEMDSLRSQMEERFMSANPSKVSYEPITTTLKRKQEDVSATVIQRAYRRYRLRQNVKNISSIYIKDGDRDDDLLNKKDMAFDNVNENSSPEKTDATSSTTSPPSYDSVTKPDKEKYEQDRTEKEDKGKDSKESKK
T2 sequence (Q07699 19-218 partner): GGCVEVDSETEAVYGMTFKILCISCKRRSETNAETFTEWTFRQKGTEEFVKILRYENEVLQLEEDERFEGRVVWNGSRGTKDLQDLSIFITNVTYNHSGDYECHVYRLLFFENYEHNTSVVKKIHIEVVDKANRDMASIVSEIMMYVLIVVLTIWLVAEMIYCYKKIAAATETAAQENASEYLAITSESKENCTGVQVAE
T3 sequence (Q15858 1-1977 isoform Q15858-3): as the sequence (Q15858 1-1977 isoform Q15858-3) above
T3 sequence (Q07699 19-218 partner): as the sequence (Q07699 19-218 partner) above

Row | Compound | IC50 (NaV1.5; read-out: Nav1.5) | IC50 (human NaV1.7) | IC50 (hNav1.7) | IC50 (NaV1.5; [1])
1 | CC1O[C@H](C)[C@@H](C(=O)O)N1C(=O)c1cc(C2CC2)c(OCC23CC4CC(CC(C4)C2)C3)cc1F (stereo partly drawn) [Example 166, (4S,5R)-3-[4-(1-adamantylmethoxy)-5-cyclopropyl-2-fluoro-benzoyl]-2,5-dimethyl-oxazolidine-4-carboxylic acid] | 13000 nM | 750 nM | 90 nM | –
2 | O=C(O)C1=CCCN1C(=O)c1cc(C2CC2)c(OCC23CC4CC(CC(C4)C2)C3)cc1F [Example 167, 1-[4-(1-adamantylmethoxy)-5-cyclopropyl-2-fluoro-benzoyl]-2,3-dihydropyrrole-5-carboxylic acid] | 28000 nM | 660 nM | 190 nM | –
3 | CC[C@H]1CCN(C(=O)c2cc(C3CC3)c(OCC34CC5CC(CC(C5)C3)C4)cc2F)[C@@H]1C(=O)O [Example 168a, (2S,3S)-1-[4-(1-adamantylmethoxy)-5-cyclopropyl-2-fluoro-benzoyl]-3-ethyl-pyrrolidine-2-carboxylic acid] | 6800 nM | 3300 nM | 610 nM | –
4 | CC[C@@H]1CCN(C(=O)c2cc(C3CC3)c(OCC34CC5CC(CC(C5)C3)C4)cc2F)[C@H]1C(=O)O [Example 168b, (2R,3R)-1-[4-(1-adamantylmethoxy)-5-cyclopropyl-2-fluoro-benzoyl]-3-ethyl-pyrrolidine-2-carboxylic acid] | 8200 nM | 1300 nM | 180 nM | –
5 | C[C@@H](c1cc(Cl)cc(Cl)c1)N1CCC(COc2cc(F)c(C(=O)N3C[C@H](Cl)C[C@H]3C(=O)O)cc2C2CC2)CC1 [Example 169, (2S,4R)-4-chloro-1-(5-cyclopropyl-4-((1-((S)-1-(3,5-dichlorophenyl)ethyl)piperidin-4-yl)methoxy)-2-fluorobenzoyl)pyrrolidine-2-carboxylic acid] | 13000 nM | 780 nM | 91 nM | –
6 | O=C(N[C@H](C(=O)O)C1CCC1)c1cc(C2CC2)c(OCC23CC4CC(CC(C4)C2)C3)cc1F [Example 170, (2S)-2-[[4-(1-adamantylmethoxy)-5-cyclopropyl-2-fluorobenzoyl]amino]-2-cyclobutyl-acetic acid] | 3700 nM | 3800 nM | 260 nM | –
7 | CC(c1cc(Cl)cc(Cl)c1)N1CCC(COc2cc(F)c(C(=O)N3[C@@H](C(=O)O)C[C@H]4CCC[C@H]43)cc2C2CC2)CC1 (stereo partly drawn) [Example 172, (2R,3R,6R)-1-(5-cyclopropyl-4-((1-((R)-1-(3,5-dichlorophenyl)ethyl)piperidin-4-yl)methoxy)-2-fluorobenzoyl)octahydrocyclopenta[b]pyrrole-2-carboxylic acid] | 14000 nM | 4200 nM | 1000 nM | –
8 | O=C(O)[C@@H]1C[C@@H](F)CN1C(=O)c1cc(C2CC2)c(OCC2CCN(Cc3cc(Cl)cc(C(F)(F)F)c3)CC2)cc1F [Example 173, (2S,4R)-1-(4-((1-(3-chloro-5-(trifluoromethyl)benzyl)piperidin-4-yl)methoxy)-5-cyclopropyl-2-fluorobenzoyl)-4-fluoropyrrolidine-2-carboxylic acid] | 23000 nM | 330 nM | 65 nM | –
9 | CC(c1ccc(Cl)cc1Cl)N1CCC(COc2cc(F)c(C(=O)N3C[C@H](F)C[C@H]3C(=O)O)cc2C2CC2)CC1 (stereo partly drawn) [Example 174] | – | 340 nM | 26 nM | ≥ 30000 nM
10 | O=C(O)[C@@H]1C[C@@H](F)CN1C(=O)c1cc(C2CC2)c(OCC2CCN(Cc3ccc(Cl)c(Cl)c3)CC2)cc1F [Example 175, (2S,4R)-1-(5-cyclopropyl-4-((1-(3,4-dichlorobenzyl)piperidin-4-yl)methoxy)-2-fluorobenzoyl)-4-fluoropyrrolidine-2-carboxylic acid] | – | 1200 nM | 110 nM | ≥ 30000 nM
11 | O=C(c1cc(C2CC2)c(OCC23CC4CC(CC(C4)C2)C3)cc1F)N1CC2CC1(C(=O)O)C2 [Example 176, 3-[4-(1-adamantylmethoxy)-5-cyclopropyl-2-fluoro-benzoyl]-3-azabicyclo[2.1.1]hexane-4-carboxylic acid] | 7200 nM | 1300 nM | 360 nM | –
12 | COc1ncccc1-c1cc(C(=O)N2CCC[C@H]2C(=O)O)c(F)cc1Oc1cnc(OC(C)C)c(Cl)c1 [Example 179, (S)-1-(4-((5-chloro-6-isopropoxypyridin-3-yl)oxy)-2-fluoro-5-(2-methoxypyridin-3-yl)benzoyl)pyrrolidine-2-carboxylic acid] | – | 830 nM | 400 nM | ≥ 30000 nM
13 | O=C(O)[C@@H]1CCCN1C(=O)c1cc(Cl)c(COc2cnc(OCC(F)(F)C(F)F)c(Cl)c2)cc1F [Example 180, (S)-1-(5-chloro-4-(((5-chloro-6-(2,2,3,3-tetrafluoropropoxy)pyridin-3-yl)oxy)methyl)-2-fluorobenzoyl)pyrrolidine-2-carboxylic acid] | – | 1400 nM | 830 nM | ≥ 30000 nM
14 | O=C(O)[C@@H]1CCCN1C(=O)c1cc(C2CC2)c(OCC2CCN(Cc3cc(Cl)ccc3C(F)(F)F)CC2)cc1F [Example 181, (S)-1-(4-((1-(5-chloro-2-(trifluoromethyl)benzyl)piperidin-4-yl)methoxy)-5-cyclopropyl-2-fluorobenzoyl)pyrrolidine-2-carboxylic acid] | – | 230 nM | 50 nM | ≥ 30000 nM
15 | O=C(O)[C@@H]1CCCN1C(=O)c1cc(C2CC2)c(COc2cc(Cl)cc(OC(F)(F)F)c2)cc1F [Example 182, (S)-1-(4-((3-chloro-5-(trifluoromethoxy)phenoxy)methyl)-5-cyclopropyl-2-fluorobenzoyl)pyrrolidine-2-carboxylic acid] | 25000 nM | 220 nM | 32 nM | –
16 | CC(C)[C@H](NC(=O)c1cc(C2CC2)c(COc2cc(Cl)cc(OC(F)(F)F)c2)cc1F)C(=O)O [Example 183, (S)-2-(4-((3-chloro-5-(trifluoromethoxy)phenoxy)methyl)-5-cyclopropyl-2-fluorobenzamido)-3-methylbutanoic acid] | 9200 nM | 1900 nM | 31 nM | –
17 | O=C(O)[C@@H]1CCCN1C(=O)c1cc(C2CC2)c(COc2cnc(OCC(F)(F)C(F)F)c(C3CC3)c2)cc1F [Example 184, (S)-1-(5-cyclopropyl-4-(((5-cyclopropyl-6-(2,2,3,3-tetrafluoropropoxy)pyridin-3-yl)oxy)methyl)-2-fluorobenzoyl)pyrrolidine-2-carboxylic acid] | 23000 nM | 1300 nM | 460 nM | –
18 | CC(C)COc1ncc(Oc2cc(F)c(C(=O)N[C@H](C(=O)O)C(C)C)cc2Cl)cc1Cl [Example 185, (S)-2-(5-chloro-4-((5-chloro-6-isobutoxypyridin-3-yl)oxy)-2-fluorobenzamido)-3-methylbutanoic acid] | 17000 nM | 9600 nM | 100 nM | –
19 | CC[C@@H](C)[C@H](NC(=O)c1cc(Cl)c(Oc2cnc(OCC(C)C)c(Cl)c2)cc1F)C(=O)O [Example 186, (2S,3R)-2-(5-chloro-4-((5-chloro-6-isobutoxypyridin-3-yl)oxy)-2-fluorobenzamido)-3-methylpentanoic acid] | 12000 nM | 8300 nM | 350 nM | –
20 | CC(C)[C@@H](C(=O)O)N(C)C(=O)c1cc(C2CC2)c(COc2cc(Cl)cc(OC(F)(F)F)c2)cc1F [Example 187, (S)-2-(4-((3-chloro-5-(trifluoromethoxy)phenoxy)methyl)-5-cyclopropyl-2-fluoro-N-methylbenzamido)-3-methylbutanoic acid] | 11000 nM | 7300 nM | 3300 nM | –
21 | NC(=O)[C@@H]1CCCN1C(=O)c1cc(C2CC2)c(COc2cc(Cl)cc(OC(F)(F)F)c2)cc1F [Example 188, (5)-1-(4-((3-chloro-5-(trifluoromethoxy)phenoxy)methyl)-5-cyclopropyl-2-fluorobenzoyl)pyrrolidine-2-carboxamide] | 16000 nM | 6600 nM | 9100 nM | –
22 | O=C(N[C@@H](CC1CC1)C(=O)O)c1cc(C2CC2)c(OCC23CC4CC(CC(C4)C2)C3)cc1F [Example 189, (S)-2-(4-((3S,5S,7S)-adamantan-1-ylmethoxy)-5-cyclopropyl-2-fluorobenzamido)-3-cyclopropylpropanoic acid] | 15000 nM | 4000 nM | 120 nM | –
23 | O=C(O)[C@@H]1CCCN1C(=O)c1cc(C2CC2)c(OCC2CCN(Cc3cc(F)cc(Cl)c3)CC2)cc1F [Example 190, (S)-1-(4-((1-(3-chloro-5-fluorobenzyl)piperidin-4-yl)methoxy)-5-cyclopropyl-2-fluorobenzoyl)pyrrolidine-2-carboxylic acid] | – | 2900 nM | 190 nM | ≥ 30000 nM
24 | O=C(O)[C@@H]1CCCN1C(=O)c1cc(Cl)c(Oc2cnc(OCC(F)(F)F)c(Cl)c2)cc1F [Example 191, (S)-1-(5-Chloro-4-((5-chloro-6-(2,2,2-trifluoroethoxy)pyridin-3-yl)oxy)-2-fluorobenzoyl)pyrrolidine-2-carboxylic acid trifluoroacetate] | – | 19000 nM | 2700 nM | ≥ 30000 nM
